In US20240025884A1 (Dong-A ST Co., Ltd., priority 2022, published 2024):

biological target: GCN2 (Homo sapiens (Human), UniProt Q9P2K8); assay: GCN2 Biochemical Assay (TR-FRET, GFP-eIF2S1 substrate phosphorylation); settings: read-out: IC50 (GCN2 Inhibitory Activity)
Method in brief: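 In-house GCN2 (1.6 nM 2× stock) phosphorylates GFP-eIF2S1 (50 nM 2× stock) with ATP (0.2 mM 2× stock) and tRNA, pH 7.5, 70 min at room temperature; 10-point 3.16-fold compound series. TR-FRET detection with Tb-anti-phospho antibody, 2–3 h, Ex 340/Em 490/520 nm; artifact plate spiked with phospho-substrate.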

GCN2, sequence (Q9P2K8 whole entry): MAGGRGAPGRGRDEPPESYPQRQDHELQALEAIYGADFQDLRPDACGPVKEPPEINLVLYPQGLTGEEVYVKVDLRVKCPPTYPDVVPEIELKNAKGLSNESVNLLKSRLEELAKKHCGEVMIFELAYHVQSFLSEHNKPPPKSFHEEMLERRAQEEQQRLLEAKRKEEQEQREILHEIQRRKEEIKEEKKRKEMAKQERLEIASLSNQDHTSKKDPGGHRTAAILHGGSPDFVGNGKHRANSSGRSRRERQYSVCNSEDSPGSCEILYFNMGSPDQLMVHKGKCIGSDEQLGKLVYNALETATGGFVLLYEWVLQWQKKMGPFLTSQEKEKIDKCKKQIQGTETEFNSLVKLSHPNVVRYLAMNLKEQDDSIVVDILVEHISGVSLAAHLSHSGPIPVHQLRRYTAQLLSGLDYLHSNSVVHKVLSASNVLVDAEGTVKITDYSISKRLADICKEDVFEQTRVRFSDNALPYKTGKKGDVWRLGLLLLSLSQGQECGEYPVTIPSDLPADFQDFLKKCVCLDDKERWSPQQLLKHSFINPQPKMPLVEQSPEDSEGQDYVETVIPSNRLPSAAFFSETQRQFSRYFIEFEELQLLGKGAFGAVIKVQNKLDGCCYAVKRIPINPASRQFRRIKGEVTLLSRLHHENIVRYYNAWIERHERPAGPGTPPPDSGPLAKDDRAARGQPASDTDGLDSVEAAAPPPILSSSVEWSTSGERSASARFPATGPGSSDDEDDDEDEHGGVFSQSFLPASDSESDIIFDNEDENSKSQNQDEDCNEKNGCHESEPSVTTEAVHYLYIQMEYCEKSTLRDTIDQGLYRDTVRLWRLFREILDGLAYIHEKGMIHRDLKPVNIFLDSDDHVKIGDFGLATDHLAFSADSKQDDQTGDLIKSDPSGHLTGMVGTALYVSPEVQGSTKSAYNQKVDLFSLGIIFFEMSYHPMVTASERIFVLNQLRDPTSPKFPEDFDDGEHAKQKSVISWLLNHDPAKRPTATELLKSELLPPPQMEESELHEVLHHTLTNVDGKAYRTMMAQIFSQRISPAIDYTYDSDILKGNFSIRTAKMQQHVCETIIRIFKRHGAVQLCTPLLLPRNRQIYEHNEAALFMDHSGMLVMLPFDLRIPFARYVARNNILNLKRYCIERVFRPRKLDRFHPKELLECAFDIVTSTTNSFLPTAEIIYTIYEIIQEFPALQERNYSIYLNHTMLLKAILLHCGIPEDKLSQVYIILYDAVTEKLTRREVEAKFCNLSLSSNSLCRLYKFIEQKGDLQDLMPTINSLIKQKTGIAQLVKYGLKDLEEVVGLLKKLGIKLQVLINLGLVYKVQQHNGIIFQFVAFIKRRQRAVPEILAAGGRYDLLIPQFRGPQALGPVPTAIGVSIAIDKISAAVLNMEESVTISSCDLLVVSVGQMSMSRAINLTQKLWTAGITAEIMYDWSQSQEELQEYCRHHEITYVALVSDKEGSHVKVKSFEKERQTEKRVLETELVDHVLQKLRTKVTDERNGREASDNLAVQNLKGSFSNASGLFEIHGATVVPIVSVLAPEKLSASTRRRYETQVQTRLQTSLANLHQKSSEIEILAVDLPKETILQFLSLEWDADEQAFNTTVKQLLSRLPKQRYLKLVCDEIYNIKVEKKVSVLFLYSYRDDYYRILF

For `Cc1cnc(Nc2cc(C)n(C)n2)nc1-c1c[nH]c2c(NC(=O)CN3CC[C@H](Oc4ccsn4)C3)cccc12` [Example 114, (S)-N-(3-(2-((1,5-dimethyl-1H-pyrazol-3-yl)amino)-5-methylpyrimidin-4-yl)-1H-indol-7-yl)-2-(3-(isothiazol-3-yloxy)pyrrolidin-1-yl)acetamide], which IC50 is on record?
Its IC50 is 10 to 100 nM.

`Cc1cnc(Nc2cc(C)n(C)n2)nc1-c1c[nH]c2c(NC(=O)CN3CC[C@H](Oc4ccsc4C)C3)cccc12` [Example 115, (S)-N-(3-(2-((1,5-dimethyl-1H-pyrazol-3-yl)amino)-5-methylpyrimidin-4-yl)-1H-indol-7-yl)-2-(3-((2-methylthiophen-3-yl)oxy)pyrrolidin-1-yl)acetamide] was tested. Which IC50 did it give?
Its IC50 is 10 to 100 nM.

How did the IC50 turn out when `Cc1cnc(Nc2cc(C)n(C)n2)nc1-c1c[nH]c2c(NC(=O)CN3CC[C@H](Oc4cc[nH]n4)C3)cccc12` [Example 116, (S)-2-(3-((1H-pyrazol-3-yl)oxy)pyrrolidin-1-yl)-N-(3-(2-((1,5-dimethyl-1H-pyrazol-3-yl)amino)-5-methylpyrimidin-4-yl)-1H-indol-7-yl)acetamide] was run?
Its IC50 is 10 to 100 nM.

For `Cc1cnc(Nc2cc(C)n(C)n2)nc1-c1c[nH]c2c(NC(=O)CN3CC[C@H](Oc4ccon4)C3)cccc12` [Example 118, (S)-N-(3-(2-((1,5-dimethyl-1H-pyrazol-3-yl)amino)-5-methylpyrimidin-4-yl)-1H-indol-7-yl)-2-(3-(isoxazol-3-yloxy)pyrrolidin-1-yl)acetamide], which IC50 is on record?
Its IC50 is < 10 nM.

Which IC50 does the source give for `Cc1cnc(Nc2cc(C)n(C)n2)nc1-c1c[nH]c2c(NC(=O)CN3CC[C@H](Oc4cc(N)[nH]n4)C3)cccc12` [Example 119, (S)-2-(3-((5-amino-1H-pyrazol-3-yl)oxy)pyrrolidin-1-yl)-N-(3-(2-((1,5-dimethyl-1H-pyrazol-3-yl)amino)-5-methylpyrimidin-4-yl)-1H-indol-7-yl)acetamide] here?
Its IC50 is 10 to 100 nM.

Which IC50 does the source give for `COC(=O)c1[nH]ccc1O[C@H]1CCN(CC(=O)Nc2cccc3c(-c4nc(Nc5cc(C)n(C)n5)ncc4C)c[nH]c23)C1` [Example 120, methyl (S)-3-((1-(2-((3-(2-((1,5-dimethyl-1H-pyrazol-3-yl)amino)-5-methylpyrimidin-4-yl)-1H-indol-7-yl)amino)-2-oxoethyl)pyrrolidin-3-yl)oxy)-1H-pyrrole-2-carboxylate] here?
Its IC50 is < 10 nM.

Which IC50 does the source give for `CCOC(=O)c1cnoc1O[C@H]1CCN(CC(=O)Nc2cccc3c(-c4nc(Nc5cc(C)n(C)n5)ncc4C)c[nH]c23)C1` [Example 121, ethyl (S)-5-((1-(2-((3-(2-((1,5-dimethyl-1H-pyrazol-3-yl)amino)-5-methylpyrimidin-4-yl)-1H-indol-7-yl)amino)-2-oxoethyl)pyrrolidin-3-yl)oxy)isoxazole-4-carboxylate] here?
Its IC50 is < 10 nM.

For `Cc1cnc(Nc2cc(C)n(C)n2)nc1-c1c[nH]c2c(NC(=O)CN3CC[C@H](Oc4cc(C(N)=O)on4)C3)cccc12` [Example 122, (S)-3-((1-(2-((3-(2-((1,5-dimethyl-1H-pyrazol-3-yl)amino)-5-methylpyrimidin-4-yl)-1H-indol-7-yl)amino)-2-oxoethyl)pyrrolidin-3-yl)oxy)isoxazole-5-carboxamide], which IC50 is on record?
Its IC50 is 10 to 100 nM.

How did the IC50 turn out when `CNC(=O)c1cc(O[C@H]2CCN(CC(=O)Nc3cccc4c(-c5nc(Nc6cc(C)n(C)n6)ncc5C)c[nH]c34)C2)no1` [Example 123, (S)-3-((1-(2-((3-(2-((1,5-dimethyl-1H-pyrazol-3-yl)amino)-5-methylpyrimidin-4-yl)-1H-indol-7-yl)amino)-2-oxoethyl)pyrrolidin-3-yl)oxy)-N-methylisoxazole-5-carboxamide] was run?
The IC50 was 10 to 100 nM.

How did the IC50 turn out when `Cc1cnc(Nc2cc(C)n(C)n2)nc1-c1c[nH]c2c(NC(=O)CN3CC[C@H](Oc4cc(C(=O)NC5CC5)on4)C3)cccc12` [Example 124, (S)-N-cyclopropyl-3-((1-(2-((3-(2-((1,5-dimethyl-1H-pyrazol-3-yl)amino)-5-methylpyrimidin-4-yl)-1H-indol-7-yl)amino)-2-oxoethyl)pyrrolidin-3-yl)oxy)isoxazole-5-carboxamide] was run?
Its IC50 is < 10 nM.

How did the IC50 turn out when `Cc1cnc(Nc2cc(C)n(C)n2)nc1-c1c[nH]c2c(NC(=O)CN3CC[C@H](Oc4cc(C(=O)N(C)C)on4)C3)cccc12` [Example 125, (S)-3-((1-(2-((3-(2-((1,5-dimethyl-1H-pyrazol-3-yl)amino)-5-methylpyrimidin-4-yl)-1H-indol-7-yl)amino)-2-oxoethyl)pyrrolidin-3-yl)oxy)-N,N-dimethylisoxazole-5-carboxamide] was run?
Its IC50 is 10 to 100 nM.

`Cc1cnc(Nc2cc(C)n(C)n2)nc1-c1c[nH]c2c(NC(=O)CN3CC[C@H](Oc4ncc(C(=O)NC5CC5)o4)C3)cccc12` [Example 126, (S)-N-cyclopropyl-2-((1-(2-((3-(2-((1,5-dimethyl-1H-pyrazol-3-yl)amino)-5-methylpyrimidin-4-yl)-1H-indol-7-yl)amino)-2-oxoethyl)pyrrolidin-3-yl)oxy)oxazole-5-carboxamide] was tested. Which IC50 did it give?
Its IC50 is 10 to 100 nM.

Which IC50 does the source give for `Cc1cnc(Nc2cc(C)n(C)n2)nc1-c1c[nH]c2c(NC(=O)CN3CC[C@H](Oc4nc(C(=O)NC5CC5)co4)C3)cccc12` [Example 127, (S)-N-cyclopropyl-2-((1-(2-((3-(2-((1,5-dimethyl-1H-pyrazol-3-yl)amino)-5-methylpyrimidin-4-yl)-1H-indol-7-yl)amino)-2-oxoethyl)pyrrolidin-3-yl)oxy)oxazole-4-carboxamide] here?
The IC50 was 10 to 100 nM.

With `Cc1cnc(Nc2cc(C)n(C)n2)nc1-c1c[nH]c2c(NC(=O)CN3CC[C@H](Oc4nccc(C(=O)O)n4)C3)cccc12` [Example 128, (S)-2-((1-(2-((3-(2-((1,5-dimethyl-1H-pyrazol-3-yl)amino)-5-methylpyrimidin-4-yl)-1H-indol-7-yl)amino)-2-oxoethyl)pyrrolidin-3-yl)oxy)pyrimidine-4-carboxylic acid] as the compound, how does the IC50 read?
Its IC50 is 10 to 100 nM.

With `Cc1cnc(Nc2cc(C)n(C)n2)nc1-c1c[nH]c2c(NC(=O)CN3CC[C@H](Oc4nccc(C(N)=O)n4)C3)cccc12` [Example 129, (S)-2-((1-(2-((3-(2-((1,5-dimethyl-1H-pyrazol-3-yl)amino)-5-methylpyrimidin-4-yl)-1H-indol-7-yl)amino)-2-oxoethyl)pyrrolidin-3-yl)oxy)pyrimidine-4-carboxamide] as the compound, how does the IC50 read?
The IC50 was 10 to 100 nM.

`CNC(=O)c1ccnc(O[C@H]2CCN(CC(=O)Nc3cccc4c(-c5nc(Nc6cc(C)n(C)n6)ncc5C)c[nH]c34)C2)n1` [Example 130, (S)-2-((1-(2-((3-(2-((1,5-dimethyl-1H-pyrazol-3-yl)amino)-5-methylpyrimidin-4-yl)-1H-indol-7-yl)amino)-2-oxoethyl)pyrrolidin-3-yl)oxy)-N-methylpyrimidine-4-carboxamide] was tested. Which IC50 did it give?
The IC50 was 10 to 100 nM.

For `Cc1cnc(Nc2cc(C)n(C)n2)nc1-c1c[nH]c2c(NC(=O)CN3CC[C@H](Oc4nccc(C(=O)N(C)C)n4)C3)cccc12` [Example 131, (S)-2-((1-(2-((3-(2-((1,5-dimethyl-1H-pyrazol-3-yl)amino)-5-methylpyrimidin-4-yl)-1H-indol-7-yl)amino)-2-oxoethyl)pyrrolidin-3-yl)oxy)-N,N-dimethylpyrimidine-4-carboxamide], which IC50 is on record?
Its IC50 is 10 to 100 nM.

Which IC50 does the source give for `Cc1cnc(Nc2cc(C)n(C)n2)nc1-c1c[nH]c2c(NC(=O)CN3CC[C@H](Oc4cncc(C(N)=O)n4)C3)cccc12` [Example 132, (S)-6-((1-(2-((3-(2-((1,5-dimethyl-1H-pyrazol-3-yl)amino)-5-methylpyrimidin-4-yl)-1H-indol-7-yl)amino)-2-oxoethyl)pyrrolidin-3-yl)oxy)pyrazine-2-carboxamide] here?
The IC50 was < 10 nM.

With `CNC(=O)c1cncc(O[C@H]2CCN(CC(=O)Nc3cccc4c(-c5nc(Nc6cc(C)n(C)n6)ncc5C)c[nH]c34)C2)n1` [Example 133, (S)-6-((1-(2-((3-(2-((1,5-dimethyl-1H-pyrazol-3-yl)amino)-5-methylpyrimidin-4-yl)-1H-indol-7-yl)amino)-2-oxoethyl)pyrrolidin-3-yl)oxy)-N-methylpyrazine-2-carboxamide] as the compound, how does the IC50 read?
Its IC50 is < 10 nM.

For `Cc1cnc(Nc2cc(C)n(C)n2)nc1-c1c[nH]c2c(NC(=O)CN3CC[C@H](Oc4ncnc(N)n4)C3)cccc12` [Example 134, (S)-2-(3-((4-amino-1,3,5-triazin-2-yl)oxy)pyrrolidin-1-yl)-N-(3-(2-((1,5-dimethyl-1H-pyrazol-3-yl)amino)-5-methylpyrimidin-4-yl)-1H-indol-7-yl)acetamide], which IC50 is on record?
Its IC50 is < 10 nM.

How did the IC50 turn out when `CNc1ncnc(O[C@H]2CCN(CC(=O)Nc3cccc4c(-c5nc(Nc6cc(C)n(C)n6)ncc5C)c[nH]c34)C2)n1` [Example 135, (S)-N-(3-(2-((1,5-dimethyl-1H-pyrazol-3-yl)amino)-5-methylpyrimidin-4-yl)-1H-indol-7-yl)-2-(3-((4-(methylamino)-1,3,5-triazin-2-yl)oxy)pyrrolidin-1-yl)acetamide] was run?
The IC50 was < 10 nM.

For `Cc1cnc(Nc2cc(C)n(C)n2)nc1-c1c[nH]c2c(NC(=O)CN3CC[C@H](Oc4ncnc(N(C)C)n4)C3)cccc12` [Example 136, (S)-N-(3-(2-((1,5-dimethyl-1H-pyrazol-3-yl)amino)-5-methylpyrimidin-4-yl)-1H-indol-7-yl)-2-(3-((4-(dimethylamino)-1,3,5-triazin-2-yl)oxy)pyrrolidin-1-yl)acetamide], which IC50 is on record?
Its IC50 is < 10 nM.

How did the IC50 turn out when `Cc1cnc(Nc2cc(C)n(C)n2)nc1-c1c[nH]c2c(NC(=O)CN3CC[C@H](Oc4ncnc(NC5CC5)n4)C3)cccc12` [Example 137, (S)-2-(3-((4-(cyclopropylamino)-1,3,5-triazin-2-yl)oxy)pyrrolidin-1-yl)-N-(3-(2-((1,5-dimethyl-1H-pyrazol-3-yl)amino)-5-methylpyrimidin-4-yl)-1H-indol-7-yl)acetamide] was run?
Its IC50 is < 10 nM.

`Cc1cnc(Nc2cc(C)n(C)n2)nc1-c1c[nH]c2c(NC(=O)CN3CC[C@H](Oc4nc(N)nc(N)n4)C3)cccc12` [Example 138, (S)-2-(3-((4,6-diamino-1,3,5-triazin-2-yl)oxy)pyrrolidin-1-yl)-N-(3-(2-((1,5-dimethyl-1H-pyrazol-3-yl)amino)-5-methylpyrimidin-4-yl)-1H-indol-7-yl)acetamide] was tested. Which IC50 did it give?
Its IC50 is < 10 nM.
